Laboratory results reported in patent publication US20230227466A1, “SUBSTITUTED THIENOPYRIMIDINES THAT INTERACT WITH THE RAS SUPERFAMILY FOR THE TREATMENT OF CANCERS, INFLAMMATORY DISEASES, RASOPATHIES, AND FIBROTIC DISEASE” (SHY Therapeutics, LLC, priority 2020, published 2023).
Like-named read-outs stand apart in the source and are kept apart here.

Legend:
[1] = system: MIA-PaCa-2 pancreatic cancer cell line (KRAS G12C); assay: Cell proliferation assay (CellTiter 96 Aqueous One); assay type: cell-based; settings: Homo sapiens; for inhibition at 10 µM: MIA PaCa-2, read-out: % inh cell proliferation (10 μM) in MIA PaCa-2
How it was run: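 Read-out is MTS-based viability (CellTiter 96 Aqueous One) after 2–4 days of compound exposure at 37 °C in 10% FBS with 0.3% DMSO.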

[2] = molecular target: T1, KRas G12D mutant (Homo sapiens, UniProt P01116, G12D); assay: Ras GTP binding domain inhibition assay (labeled-GTP competition, cell-free)
T1 construct: made in house
How it was run: (§1)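 His-tagged GTPases were coated at 10-30 μg/mL onto nickel plates overnight at 4° C, then exposed to compound (20 μM, or serial dilutions for IC50) in buffer with 1% DMSO for 3 h at room temperature, with or without 10-30 μg/mL His-Sos (556-1049) in the final hour. Cy3- or Cy5-GTP (100 nM, 45 min) binding was measured after washing.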

[3] = molecular target: T2, KRas G12C mutant (Homo sapiens, UniProt P01116, G12C); assay: as above
T2 construct: made in house
How it was run: as §1

[4] = molecular target: Rac-1 (Homo sapiens, UniProt P63000); assay: as above; design: made in house
How it was run: as §1

[5] = molecular target: Rho-A (Homo sapiens, UniProt P61586); assay: as above; design: made in house
How it was run: as §1

[6] = molecular target: KRas wild type (Homo sapiens, UniProt P01116); assay: as above; design: made in house
How it was run: as §1

[7] = system: Akt phosphorylation in Panc-1 cells; assay: Western AKT cell-based phosphorylation assay; design: species or system human; settings: at 10 μM, values in brackets < > are activation %, not inhibition
How it was run: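 Panc-1 cells starved overnight in 0.5% FBS, exposed to compound at 10 μM (0.3% DMSO) for 6 h at 37° C, then stimulated with 1.5 ng/ml EGF for 15 min. Lysates probed by western blot with anti-phospho-Akt (Ser473), equal protein loading checked by Ponceau S.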

[8] = with SOS, read-out: KRas G12D mutant + SOS: % inh.
[9] = without SOS, read-out: KRas G12D mutant: % inh.
[10] = with SOS, read-out: KRas G12C mutant + SOS: % inh.
[11] = without SOS, read-out: KRas G12C mutant: % inh.
[12] = without SOS, read-out: Rac-1: % inh.
[13] = without SOS, read-out: Rho-A: % inh.
[14] = with SOS, read-out: KRas wild type + SOS: % inh.
[15] = without SOS, read-out: KRas wild type: % inh.
[16] = with SOS, read-out: Rac-1 + SOS: % inh.
[17] = with SOS, read-out: Rho-A + SOS: % inh.

Row | SMILES | IC50 ([1]; MIA PaCa-2, MIA PaCa-2) [µM] | inhibition at 10 µM [1] [%] | inhibition at 20 µM [2, 8] [%] | inhibition at 20 µM [2, 9] [%] | inhibition at 20 µM [3, 10] [%] | inhibition at 20 µM [3, 11] [%] | inhibition at 20 µM [4, 12] [%] | inhibition at 20 µM [5, 13] [%] | inhibition at 20 µM [6, 14] [%] | inhibition at 20 µM [6, 15] [%] | % inh of AKT phosphorylation in PANC-1 [7] | inhibition at 20 µM [4, 16] [%] | inhibition at 20 µM [5, 17] [%] | IC50 ([1]; MIA PaCa-2, MIA-PaCa-2, 2-4 days, 10% FBS) [µM]
1 | Oc1nc(-c2nccn2CCOCc2ccccc2)nc2c(-c3ccccn3)csc12 [Compound 83, 2-(1-(2-(Benzyloxy)ethyl)-1H-imidazol-2-yl)-7-(pyridin-2-yl)thieno[3,2-d]pyrimidin-4-ol] | 5 to 10 | 76 to 100 | 51 to 75 | 51 to 75 | 51 to 75 | 1 to 25 | 76 to 100 | 51 to 75 | 26 to 50 | 51 to 75 | <D> |  |  | 
2 | COc1cccn2c(-c3nc(O)c4scc(-c5ccccn5)c4n3)ncc12 [Compound 84, 2-(8-Methoxyimidazo[1,5-a]pyridin-3-yl)-7-(pyridin-2-yl)thieno[3,2-d]pyrimidin-4-ol] | 5 to 10 | 51 to 75 | 26 to 50 | 26 to 50 | 1 to 25 | 26 to 50 | 26 to 50 | 51 to 75 | 1 to 25 | 26 to 50 | A (1-25% inhibition) |  |  | 
3 | CO[C@H]1C[C@@H](Nc2nc(-c3nccn3C)nc3sc(-c4ccn(C(C)C)n4)c(C)c23)C1 [Compound 96, 6-(1-isopropyl-1H-pyrazol-3-yl)-N-((1s,3s)-3-methoxycyclobutyl)-5-methyl-2-(1-methyl-1H-imidazol-2-yl)thieno[2,3-d]pyrimidin-4-amine] | > 10 | 1 to 25 | 1 to 25 | 0 | 0 | 0 | 1 to 25 | 0 | 1 to 25 | 0 | 0 (0% inhibition) | 1 to 25 | 0 | 
4 | CO[C@@H]1CC[C@H](Nc2nc(-c3nccn3C)nc3sc(-c4ccn(C(C)C)n4)c(-c4ccccc4)c23)C1 [Example 4, 6-(1-isopropyl-1H-pyrazol-3-yl)-N-((1S,3R)-3-methoxycyclopentyl)-2-(1-methyl-1H-imidazol-2-yl)-5-phenylthieno[2,3-d]pyrimidin-4-amine] | < 1 | 76 to 100 | 51 to 75 | 51 to 75 | 76 to 100 | 51 to 75 | 1 to 25 | 26 to 50 | 76 to 100 | 51 to 75 | D (76-100% inhibition) | 26 to 50 | 26 to 50 | < 0.4
